TGI and GI50 data for 13 compounds are collected here from PubChem BioAssay (NCI).

Molecules are shown by their SMILES.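 Five concentrations, 48 hours, 96-well plates. The concentration for 50% growth inhibition is given as GI50. TGI: total growth inhibition.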

Among the test systems are SW-620 colon; SNB-75 CNS; NCI-H226 lung; OVCAR-4 ovarian; RPMI-8226 leukemia; HCT-15 colon; 786-0 renal; SR leukemia; DU-145 prostate; K-562 leukemia.
What all share (assay): NCI-60 cell line screen, 48 h

Regarding `Cc1nc2cccc([N+](=O)[O-])c2c(NCCCN(C)C)c1C`, the TGI with SW-620 colon was more than 100 µM; in the assay with SNB-75 CNS it was more than 100 µM; in the assay with NCI-H226 lung, more than 90.4 µM; in the assay on OVCAR-4 ovarian, more than 100 µM; in the assay on RPMI-8226 leukemia it was more than 100 µM; in the assay on HCT-15 colon, more than 52.8 µM. Moreover, the TGI with 786-0 renal was more than 100 µM; with SR leukemia it was more than 57.5 µM; in the assay with DU-145 prostate, more than 100 µM; in the assay on K-562 leukemia, more than 76.9 µM.

As for `CNC(=O)OCc1c(COC(=O)NC)c(-c2ccc(Cl)c(Cl)c2)n2c1SCC2`, the TGI in the assay with SW-620 colon was found to be 26.3 µM; in the assay with SNB-75 CNS, 25.1 µM; in the assay with NCI-H226 lung it was 2.67 µM; in the assay with OVCAR-4 ovarian, 25.5 µM; in the assay on RPMI-8226 leukemia it was 39.7 µM; in the assay on HCT-15 colon it was 28.1 µM. The TGI is more than 46.8 µM in the assay with 786-0 renal, 39 µM with SR leukemia, 39.5 µM in the assay on DU-145 prostate and 52 µM in the assay on K-562 leukemia. In addition, the GI50 with OVCAR-4 ovarian is 3.59 µM.

Regarding `CCCCC(=O)OCC1OC(n2cnc3c(=S)nc[nH]c32)C(OC(=O)CCCC)C1OC(=O)CCCC` (configuration not stated), the GI50 is 1.51 µM with SW-620 colon; 0.213 µM with SNB-75 CNS; 0.441 µM in the assay with OVCAR-4 ovarian; 5.81 µM in the assay with RPMI-8226 leukemia; 1.56 µM in the assay on HCT-15 colon; 2.24 µM in the assay with 786-0 renal. Further, the GI50 was 7.5 µM in the assay on SR leukemia, 0.636 µM with DU-145 prostate and 2.03 µM in the assay with K-562 leukemia. Further, the TGI in the assay with SW-620 colon, with NCI-H226 lung, with OVCAR-4 ovarian, with RPMI-8226 leukemia, with HCT-15 colon and with 786-0 renal was more than 100 µM throughout. The TGI in the assay with SR leukemia, with DU-145 prostate and with K-562 leukemia was more than 100 µM throughout.

On to `O=C1/C(=C/c2ccc(Br)cc2)C=C(c2ccccc2)N1CCc1ccccc1`, for which the GI50 in the assay on SW-620 colon is 5.34 µM; with SNB-75 CNS, 0.66 µM; in the assay on NCI-H226 lung, 1.11 µM; with OVCAR-4 ovarian, 0.554 µM; with RPMI-8226 leukemia, 9.44 µM; in the assay with HCT-15 colon it was 11.7 µM. Moreover, the GI50 with 786-0 renal was 0.647 µM; in the assay with SR leukemia it was 11.6 µM; in the assay with DU-145 prostate, 2.54 µM; with K-562 leukemia, 2.63 µM. The TGI is more than 100 µM in the assay on SW-620 colon; 3.83 µM with SNB-75 CNS; 4.57 µM with NCI-H226 lung; 3.13 µM in the assay on OVCAR-4 ovarian; 86.4 µM with RPMI-8226 leukemia; more than 100 µM in the assay on HCT-15 colon. Besides, the TGI in the assay on 786-0 renal is 2.8 µM; in the assay with SR leukemia, more than 100 µM; with DU-145 prostate, 15.8 µM; with K-562 leukemia it was 20.5 µM.

On to `CCOc1cccc(/C=N/NC(=O)c2ccccc2Nc2ccnc(C(F)(F)F)c2)c1O`, for which the GI50 with SW-620 colon was 1.23 µM; with SNB-75 CNS, 2.09 µM; in the assay with NCI-H226 lung, 0.664 µM; in the assay with OVCAR-4 ovarian, 0.18 µM; in the assay on RPMI-8226 leukemia it was 0.332 µM; with HCT-15 colon, 0.195 µM. The GI50 with 786-0 renal is 1.32 µM; in the assay on SR leukemia, 0.0576 µM; with DU-145 prostate it was 0.63 µM; with K-562 leukemia, 0.322 µM. For the same compound, the TGI was more than 100 µM in the assay with SW-620 colon; more than 77.9 µM in the assay on SNB-75 CNS; 19.1 µM with NCI-H226 lung; more than 100 µM with HCT-15 colon; 24 µM in the assay on 786-0 renal; 0.363 µM with SR leukemia. Moreover, the TGI with DU-145 prostate was more than 100 µM; in the assay on K-562 leukemia, 10.4 µM.

`Cc1nn(CN2CCN(C)CC2)c(=S)n1/N=C/c1cccc2ccccc12`: the GI50 was 31.4 µM in the assay with SW-620 colon; 11.1 µM in the assay with SNB-75 CNS; 17.1 µM with NCI-H226 lung; 2.11 µM in the assay on OVCAR-4 ovarian; 17.4 µM with RPMI-8226 leukemia; 16 µM with HCT-15 colon. Also, the GI50 is 21.3 µM in the assay on 786-0 renal, 19 µM in the assay on SR leukemia, 31.7 µM with DU-145 prostate and 15.2 µM in the assay on K-562 leukemia. For the same compound, the TGI in the assay with SW-620 colon was more than 100 µM; in the assay on SNB-75 CNS it was 38.1 µM; in the assay with NCI-H226 lung it was 34.9 µM; in the assay on OVCAR-4 ovarian it was 19.4 µM; with RPMI-8226 leukemia, 39.9 µM; with HCT-15 colon it was 33.5 µM. Also, the TGI is 44.6 µM in the assay on 786-0 renal, 38.5 µM with SR leukemia, more than 100 µM in the assay on DU-145 prostate and 37.5 µM with K-562 leukemia.

Turning to `COc1cc(OC)cc(-c2ccc(-c3ccc(C(=N)N)o3)o2)c1`, the GI50 in the assay on SW-620 colon was 1.88 µM; in the assay on SNB-75 CNS it was 2.2 µM; in the assay on NCI-H226 lung, 22.6 µM; with OVCAR-4 ovarian, 3.51 µM; in the assay on RPMI-8226 leukemia, 2.25 µM; in the assay with HCT-15 colon, 3.18 µM. The GI50 is 4.15 µM with 786-0 renal, 1.68 µM in the assay with SR leukemia, 4.28 µM with DU-145 prostate and 1.98 µM in the assay on K-562 leukemia. Besides, the TGI in the assay on SW-620 colon amounted to 4.06 µM; with SNB-75 CNS it was 13.8 µM; with NCI-H226 lung it was 44.6 µM; in the assay with OVCAR-4 ovarian, 14.8 µM; in the assay with RPMI-8226 leukemia it was 5.68 µM; in the assay with HCT-15 colon, 10.4 µM. For the same compound, the TGI worked out at 15.6 µM in the assay with 786-0 renal, 4.36 µM with SR leukemia, 15.2 µM with DU-145 prostate and 4.47 µM in the assay on K-562 leukemia.

With `O=C(c1ccco1)c1nc2ccc(C(F)(F)F)cc2[n+]([O-])c1C(F)(F)F`, the GI50 in the assay with SW-620 colon was more than 100 µM; in the assay with SNB-75 CNS, 10.6 µM; in the assay with NCI-H226 lung, 53.9 µM; in the assay with OVCAR-4 ovarian it was 10.8 µM; in the assay with RPMI-8226 leukemia it was 20.3 µM; in the assay on HCT-15 colon, more than 100 µM. For the same compound, the GI50 is more than 100 µM in the assay with 786-0 renal, 20.8 µM with SR leukemia, 42.7 µM with DU-145 prostate and 31.3 µM in the assay on K-562 leukemia. For the same compound, the TGI is more than 100 µM in the assay on SW-620 colon; 37.8 µM in the assay on SNB-75 CNS; more than 100 µM in the assay with NCI-H226 lung; 48.3 µM in the assay on OVCAR-4 ovarian; 93 µM with RPMI-8226 leukemia; more than 100 µM in the assay on HCT-15 colon. Moreover, the TGI was more than 100 µM in the assay with 786-0 renal, 57.4 µM in the assay on SR leukemia, more than 100 µM with DU-145 prostate and more than 100 µM in the assay on K-562 leukemia.

Regarding `COC(=O)CCCCN=Cc1c(O)c(O)c(C(C)C)c2cc(C)c(-c3c(C)cc4c(C(C)C)c(O)c(O)c(C=NCCCCC(=O)OC)c4c3O)c(O)c12`, the GI50 with SW-620 colon was 1.27 µM; with SNB-75 CNS, 2.6 µM; in the assay on NCI-H226 lung, 1.3 µM; in the assay on OVCAR-4 ovarian it was 0.886 µM; with RPMI-8226 leukemia, 0.616 µM; with HCT-15 colon it was 1.06 µM. Also, the GI50 in the assay on 786-0 renal was 1.34 µM; in the assay with SR leukemia, 0.917 µM; with DU-145 prostate it was 1.39 µM; in the assay on K-562 leukemia, 0.64 µM. Further, the TGI was more than 32.5 µM in the assay on SW-620 colon; more than 32.5 µM in the assay with SNB-75 CNS; 8.38 µM with NCI-H226 lung; more than 32.5 µM in the assay with OVCAR-4 ovarian; 20.3 µM in the assay on RPMI-8226 leukemia; more than 32.5 µM in the assay on HCT-15 colon. In addition, the TGI in the assay with 786-0 renal is 15.1 µM; in the assay with SR leukemia, 5.72 µM; in the assay with DU-145 prostate, more than 32.5 µM; in the assay on K-562 leukemia it was 4.09 µM.

For `COC(=O)c1cc2c3ccccc3[nH]c2c2ncccc12`, the GI50 in the assay on SW-620 colon was 38.4 µM; in the assay on SNB-75 CNS it was 17.3 µM; in the assay on NCI-H226 lung, more than 100 µM; with OVCAR-4 ovarian, 57.3 µM; with RPMI-8226 leukemia it was 56.3 µM; in the assay on HCT-15 colon, 21.4 µM. Further, the GI50 in the assay with 786-0 renal is 61.2 µM; with SR leukemia, 66.4 µM; in the assay on DU-145 prostate it was 47.1 µM; in the assay with K-562 leukemia, 75.3 µM. Moreover, the TGI is more than 100 µM in the assay on SW-620 colon; 65.3 µM in the assay on SNB-75 CNS; more than 100 µM with NCI-H226 lung; more than 100 µM with OVCAR-4 ovarian; more than 100 µM in the assay on RPMI-8226 leukemia; more than 100 µM with HCT-15 colon. In addition, the TGI in the assay on 786-0 renal, with SR leukemia, with DU-145 prostate and in the assay with K-562 leukemia was more than 100 µM throughout.

For the compound `COc1ccc(/C(=C2\O[C@@H]([C@H]3COC(C)(C)O3)[C@H]3OC(C)(C)O[C@@H]23)c2cc(OC)c(OC)c(OC)c2)cc1O`, the GI50 with SW-620 colon is 4.05 µM; with SNB-75 CNS, 1.8 µM; with NCI-H226 lung, 25.9 µM; with OVCAR-4 ovarian it was 9.18 µM; in the assay with RPMI-8226 leukemia, 4.63 µM; in the assay on HCT-15 colon, 4.51 µM. Also, the GI50 was 21.1 µM with 786-0 renal, 6.27 µM in the assay on SR leukemia, 3.29 µM in the assay with DU-145 prostate and 3.22 µM with K-562 leukemia. Besides, the TGI was more than 100 µM with SW-620 colon; 6.31 µM in the assay with SNB-75 CNS; more than 100 µM in the assay on NCI-H226 lung; more than 100 µM in the assay on OVCAR-4 ovarian; more than 100 µM with RPMI-8226 leukemia; more than 100 µM with HCT-15 colon. The TGI in the assay with 786-0 renal is 60.6 µM; in the assay on SR leukemia it was more than 100 µM; with DU-145 prostate, 13.3 µM; in the assay with K-562 leukemia it was more than 100 µM.

For `Cc1cc(N(CCOS(C)(=O)=O)CCOS(C)(=O)=O)ccc1C=Nc1ccc(-c2nc(Cc3ccccc3)sc2C)cc1`, the TGI amounted to 45.4 µM in the assay on SW-620 colon; 12.3 µM with SNB-75 CNS; 22.6 µM in the assay on NCI-H226 lung; 36.8 µM in the assay with OVCAR-4 ovarian; 31.8 µM in the assay with RPMI-8226 leukemia; 35.2 µM in the assay with HCT-15 colon. Besides, the TGI is 15.1 µM in the assay on 786-0 renal, 18.5 µM with SR leukemia, 11.7 µM in the assay with DU-145 prostate and 65.5 µM in the assay with K-562 leukemia.

As for `CN(C)CCNc1cc(-c2ccccc2)nc2ccccc12`, the GI50 was 3.94 µM in the assay on SW-620 colon; 9.57 µM in the assay on SNB-75 CNS; 5.98 µM in the assay on NCI-H226 lung; 7.45 µM in the assay with OVCAR-4 ovarian; 4.09 µM with RPMI-8226 leukemia; 4.48 µM in the assay on HCT-15 colon. Also, the GI50 in the assay on 786-0 renal was 6.87 µM; in the assay on SR leukemia, 2.72 µM; with DU-145 prostate it was 5.04 µM; with K-562 leukemia it was 2.6 µM. Besides, the TGI is 21.5 µM in the assay on SW-620 colon; 23.4 µM with SNB-75 CNS; 30.2 µM with NCI-H226 lung; 37.4 µM in the assay with OVCAR-4 ovarian; 21.8 µM in the assay with RPMI-8226 leukemia; 62.5 µM in the assay with HCT-15 colon. The TGI in the assay on 786-0 renal turned out to be 23.8 µM; in the assay on SR leukemia it was 8.37 µM; in the assay on DU-145 prostate, 22.2 µM; in the assay on K-562 leukemia, 12.3 µM.
